Values after ≈ are worked out from the molar mass of the structure shown. Like-named read-outs stand apart in the source and are kept apart here.
Assays:
Type in all cases: cell-based
[1] = tested on: Haemophilus influenzae 1218; test: MIC, microtiter broth dilution (NCCLS M100-S14), H. influenzae 1218 (susceptible)
Procedure, shortened: (§1)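 Microtiter broth dilution; interpretation per NCCLS M100-S14; endpoint = MIC. Stock: 40 mg/ml in DMSO.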

[2] = tested on: Streptococcus pneumoniae 1175; settings: microtiter broth dilution
Procedure, shortened: as §1

[3] = tested on: Streptococcus pneumoniae 1095; settings: microtiter broth dilution
Procedure, shortened: as §1

[4] = tested on: Streptococcus pneumoniae 1016; test: MIC, microtiter broth dilution (NCCLS M100-S14), S. pneumoniae 1016 (susceptible)
Procedure, shortened: as §1

[5] = tested on: Streptococcus pyogenes 1079; test: MIC, microtiter broth dilution (NCCLS M100-S14), S. pyogenes 1079 (ermB)
Procedure, shortened: as §1

[6] = H. influenzae 1218 (susceptible)
[7] = S. pneumoniae 1016 (susceptible)

Structure (SMILES)	MIC H. influenzae 1218 ([1]; Haemophilus influenzae 1218)	MIC S. pneumo. 1175 ([2]; Streptococcus pneumoniae 1175)	MIC S. pneumo. 1095 ([3]; Streptococcus pneumoniae 1095)	MIC S. pneumo. 1016 ([4]; Streptococcus pneumoniae 1016)	MIC S. pyogenes 1079 ([5]; Streptococcus pyogenes 1079)	MIC H. influenzae 1218 [1, 6]	MIC S. pneumo. 1175 ([2]; S. pneumoniae 1175 (mefA))	MIC S. pneumo. 1095 ([3]; S. pneumoniae 1095 (ermB))	MIC S. pneumo. 1016 [4, 7]	MIC S. pyogenes 1079 ([5]; S. pyogenes 1079 (ermB))
CC[C@H]1OC(=O)[C@H](C)[C@@H](OC(=O)N2CCCC2)[C@H](C)[C@@H](O[C@@H]2O[C@H](C)C[C@H](N(C)C)[C@H]2O)[C@](C)(OC)C[C@@H](C)C(=O)[C@H](C)[C@H]2N(CC3CN(Cc4nc5ccccc5s4)C3)C(=O)O[C@]12C [Example 5.14, 2-R^2: (benzo[d]thiazol-2-yl)methyl; R^#: pyrrolidin-1-yl]	4 µg/mL (≈ 4.31 µM)	<0.06 µg/mL	4 µg/mL (≈ 4.31 µM)	<0.06 µg/mL	32 µg/mL (≈ 34.5 µM)					
CC[C@H]1OC(=O)[C@H](C)C(=O)[C@H](C)[C@@H](O[C@@H]2O[C@H](C)C[C@H](N(C)C)[C@H]2O)[C@](C)(OC)C[C@@H](C)C(=O)[C@H](C)[C@H]2N(C3CCN(Cc4cccc5[nH]cnc45)C3)C(=O)O[C@]12C.O=CO (stereo partly shown) [Example 8.01, (1H-benzo[d]imidazo-4-yl)methyl]						8 µg/mL	0.25 µg/mL	>64.00 µg/mL	<0.06 µg/mL	>64.00 µg/mL
CCC1OC(=O)C(C)C(=O)C(C)C(OC2OC(C)CC(N(C)C)C2O)C(C)(OC)CC(C)C(=O)C(C)C2N(C3CCN(Cc4cccc5ncccc45)C3)C(=O)OC12C [Example 9.02, 3-descladinosyl-11,12-dideoxy-6-O-methyl-3-oxo-12,11-(oxycarbonyl-(1-((quinolin-5-yl)-methyl)-(R)-pyrrolidin-3-yl)-imino)-erythromycin A]						0.5 µg/mL (≈ 0.608 µM)	0.12 µg/mL (≈ 0.146 µM)	<0.06 µg/mL	<0.06 µg/mL	8 µg/mL (≈ 9.72 µM)
CCC1OC(=O)C(C)C(=O)C(C)C(OC2OC(C)CC(N(C)C)C2O)C(C)(OC)CC(C)C(=O)C(C)C2N(C3CCN(Cc4c[nH]c5ncccc45)C3)C(=O)OC12C [Example 9.03, 3-descladinosyl-11,12-dideoxy-6-O-methyl-3-oxo-12,11-(oxycarbonyl-(1-((1H-pyrrolo[2,3-b]pyridin-3-yl)-methyl)-(R)-pyrrolidin-3-yl)-imino)-erythromycin A]						0.12 µg/mL (≈ 0.148 µM)	0.5 µg/mL (≈ 0.616 µM)	<0.06 µg/mL	<0.06 µg/mL	1 µg/mL (≈ 1.23 µM)
CCC1OC(=O)C(C)C(=O)C(C)C(OC2OC(C)CC(N(C)C)C2O)C(C)(OC)CC(C)C(=O)C(C)C2N(C3CCN(Cc4cnc5ccccc5c4)C3)C(=O)OC12C (stereo not shown) [Example 9.04, (quinolin-3-yl)methyl]						0.5 µg/mL (≈ 0.608 µM)	<0.06 µg/mL	<0.06 µg/mL	<0.06 µg/mL	32 µg/mL (≈ 38.9 µM)
CCC1OC(=O)C(C)C(=O)C(C)C(OC2OC(C)CC(N(C)C)C2O)C(C)(OC)CC(C)C(=O)C(C)C2N(C3CCN(Cc4ccnc5ncccc45)C3)C(=O)OC12C [Example 9.05, 3-descladinosyl-11,12-dideoxy-6-O-methyl-3-oxo-12,11-(oxycarbonyl-(1-((1,8-naphthyridin-4-yl)-methyl)-(R)-pyrrolidin-3-yl)-imino)erythromycin A]						8 µg/mL (≈ 9.71 µM)	0.5 µg/mL (≈ 0.607 µM)	0.5 µg/mL (≈ 0.607 µM)	<0.06 µg/mL	8 µg/mL (≈ 9.71 µM)
CCC1OC(=O)C(C)C(=O)C(C)C(OC2OC(C)CC(N(C)C)C2O)C(C)(OC)CC(C)C(=O)C(C)C2N(C3CCN(Cc4cccc5cnccc45)C3)C(=O)OC12C [Example 9.07, 3-descladinosyl-11,12-dideoxy-6-O-methyl-3-oxo-12,11-(oxycarbonyl-(1-((isoquinolin-5-yl)-methyl)-(R)-pyrrolidin-3-yl)-imino)erythromycin A]						1 µg/mL (≈ 1.22 µM)	0.12 µg/mL (≈ 0.146 µM)	<0.06 µg/mL	<0.06 µg/mL	2 µg/mL (≈ 2.43 µM)
CCC1OC(=O)C(C)C(=O)C(C)C(OC2OC(C)CC(N(C)C)C2O)C(C)(OC)CC(C)C(=O)C(C)C2N(C3CCN(S(=O)(=O)c4cccc5cnccc45)C3)C(=O)OC12C (stereo not shown) [Example 9.08, isoquinoline-5-sulfonyl]						0.25 µg/mL (≈ 0.286 µM)	0.12 µg/mL (≈ 0.137 µM)	4 µg/mL (≈ 4.58 µM)	<0.06 µg/mL	16 µg/mL (≈ 18.3 µM)
CCC1OC(=O)C(C)C(=O)C(C)C(OC2OC(C)CC(N(C)C)C2O)C(C)(OC)CC(C)C(=O)C(C)C2N(C3CCN(Cc4n[nH]c5ccccc45)C3)C(=O)OC12C [Example 9.09, 3-descladinosyl-11,12-dideoxy-6-O-methyl-3-oxo-12,11-(oxycarbonyl-(1-((1H-indazol-3-yl)-methyl)-(R)-pyrrolidin-3-yl)-imino)-erythromycin A]						0.12 µg/mL (≈ 0.148 µM)	0.12 µg/mL (≈ 0.148 µM)	0.25 µg/mL (≈ 0.308 µM)	<0.06 µg/mL	2 µg/mL (≈ 2.46 µM)
CCC1OC(=O)C(C)C(=O)C(C)C(OC2OC(C)CC(N(C)C)C2O)C(C)(OC)CC(C)C(=O)C(C)C2N(C3CCN(Cc4cncc5ccccc45)C3)C(=O)OC12C (stereo not shown) [Example 9.10, (isoquinolin-4-yl)methyl]						0.5 µg/mL (≈ 0.608 µM)	0.25 µg/mL (≈ 0.304 µM)	8 µg/mL (≈ 9.72 µM)	<0.06 µg/mL	64 µg/mL (≈ 77.8 µM)
CCC1OC(=O)C(C)C(=O)C(C)C(OC2OC(C)CC(N(C)C)C2O)C(C)(OC)CC(C)C(=O)C(C)C2N(CC3CCCN3C(=O)c3cc4ccccn4n3)C(=O)OC12C [Example 10.14, 3-descladinosyl-11,12-dideoxy-6-O-methyl-3-oxo-12,11-(oxycarbonyl-((1-(pyrazolo[1,5-a]pyridine-2-carbonyl)-(R)-pyrrolidin-2-yl)-methyl)-imino)-erythromycin A]						0.25 µg/mL (≈ 0.298 µM)	0.12 µg/mL (≈ 0.143 µM)	<0.06 µg/mL	<0.06 µg/mL	32 µg/mL (≈ 38.1 µM)
CCC1OC(=O)C(C)(F)C(=O)C(C)C(OC2OC(C)CC(N(C)C)C2O)C(C)(OC)CC(C)C(=O)C(C)C2N(CC3CCCN3C(=O)c3nc4ccccc4[nH]3)C(=O)OC12C [Example 10.27, 3-descladinosyl-11,12-dideoxy-2-fluoro-6-O-methyl-3-oxo-12,11-(oxycarbonyl-(1-(1H-benzo[d]imidazole-2-carboxyl)-((R)-pyrrolidin-2-yl)-methyl)-imino)-erythromycin A]						2 µg/mL (≈ 2.33 µM)	0.25 µg/mL (≈ 0.291 µM)	<0.06 µg/mL	<0.06 µg/mL	8 µg/mL (≈ 9.32 µM)
CCC1OC(=O)C(C)C(=O)C(C)C(OC2OC(C)CC(N(C)C)C2O)C(C)(OC)CC(C)C(=O)C(C)C2N(CC3CCN(Cc4cccc5nccnc45)C3)C(=O)OC12C [Example 11.02, 3-descladinosyl-11,12-dideoxy-6-O-methyl-3-oxo-12,11-(oxycarbonyl-(1-((quinoxalin-8-yl)-methyl)-((S)-pyrrolidin-3-yl)-methyl)-imino)-erythromycin A]						0.5 µg/mL (≈ 0.597 µM)	0.25 µg/mL (≈ 0.298 µM)	<0.06 µg/mL	<0.06 µg/mL	4 µg/mL (≈ 4.77 µM)
CCC1OC(=O)C(C)C(=O)C(C)C(OC2OC(C)CC(N(C)C)C2O)C(C)(OC)CC(C)C(=O)C(C)C2N(CC3CCN(Cc4c[nH]c5ncccc45)C3)C(=O)OC12C [Example 11.05, 3-descladinosyl-11,12-dideoxy-6-O-methyl-3-oxo-12,11-(oxycarbonyl-(1-((1H-pyrrolo[2,3-b]pyridin-3-yl)-methyl)-((S)-pyrrolidin-3-yl)-methyl)-imino)-erythromycin A]						0.5 µg/mL (≈ 0.605 µM)	0.5 µg/mL (≈ 0.605 µM)	<0.06 µg/mL	<0.06 µg/mL	4 µg/mL (≈ 4.84 µM)
CCC1OC(=O)C(C)C(=O)C(C)C(OC2OC(C)CC(N(C)C)C2O)C(C)(OC)CC(C)C(=O)C(C)C2N(CC3CCN(Cc4ccnc5ccccc45)C3)C(=O)OC12C [Example 11.11, 3-descladinosyl-11,12-dideoxy-6-O-methyl-3-oxo-12,11-(oxycarbonyl-(1-((quinolin-4-yl)-methyl)-((S)-pyrrolidin-3-yl)-methyl)-imino)-erythromycin A]						1 µg/mL (≈ 1.19 µM)	0.12 µg/mL (≈ 0.143 µM)	0.12 µg/mL (≈ 0.143 µM)	<0.06 µg/mL	8 µg/mL (≈ 9.56 µM)
CCC1OC(=O)C(C)C(=O)C(C)C(OC2OC(C)CC(N(C)C)C2O)C(C)(OC)CC(C)C(=O)C(C)C2N(CC3CCCN3C(=O)c3cccc4ncccc34)C(=O)OC12C [Example 12.11, 3-descladinosyl-11,12-dideoxy-6-O-methyl-3-oxo-12,11-(oxycarbonyl-((1-(quinoline-5-carbonyl)-(S)pyrrolidin-2-yl)-methyl)-imino)-erythromycin A]						8 µg/mL (≈ 9.4 µM)	1 µg/mL (≈ 1.18 µM)	0.5 µg/mL (≈ 0.588 µM)	<0.06 µg/mL	>64.00 µg/mL
CCC1OC(=O)C(C)C(=O)C(C)C(OC2OC(C)CC(N(C)C)C2O)C(C)(OC)CC(C)C(=O)C(C)C2N(CC3(O)CCN(Cc4c[nH]c5ncccc45)CC3)C(=O)OC12C (stereo not shown) [Example 14.01, (1H-pyrrolo[2,3-b]pyridin-3-yl)methyl]						4 µg/mL (≈ 4.67 µM)	1 µg/mL (≈ 1.17 µM)	32 µg/mL (≈ 37.4 µM)	<0.06 µg/mL	>64.00 µg/mL
